Calls of active or inactive are those of the source. No cut-off for these calls is given here.
Experiments:
HeLa = assay: Inhibition of protein synthesis in human HeLa cells at 50 to 500 uM pre-incubated for 1 hr before L-[35S]-cysteine and L-[35S]-methionine addition and measured after 1 hr by Comassie staining based autoradiography; type: functional, cell-based
[1] = Drug internalization in human HeLa cells at 1 uM by RP-HPLC-MS analysis; type: ADME, cell-based

Q: With `C/C=C(\C)C(=O)O[C@H]1[C@H](O)[C@]2(COC(C)=O)[C@@H](O)C[C@]3(C)C(=CC[C@@H]4[C@@]5(C)CC[C@H](O[C@@H]6O[C@H](C(=O)NCC)[C@@H](O)[C@H](O)[C@H]6O)[C@@](C)(CO)[C@@H]5CC[C@]43C)[C@@H]2CC1(C)C` as the molecule, how does the inhibition (HeLa) read?
A: inactive

Q: And the Drug uptake [1]?
A: 15%

— ChEMBL document CHEMBL4270485, “Determination of Gymnemic Acid I as a Protein Biosynthesis Inhibitor Using Chemical Proteomics” (J Nat Prod, 2017)
